Laboratory results taken from patent publication EP4799701A2, “PYRIMID-2-YL-PYRAZOLE COMPOUNDS AS IRAK INHIBITORS” (Rigel Pharmaceuticals, Inc., priority 2022, dated 2023).

Tested on: TLR4-induced IL-23
Test: LPS induced IL23p19 in THP-1 cells (IFNγ primed), IL-23p19 sandwich ELISA
Assay type: cell-based, human
Settings: human THP-1 cells; result in words
Excerpt: LPS induced IL23p19 in THP-1 cells (with IFNy primed) Assay
THP-1 Cells (ATCC, Cat# TIB-202), Dimethyl Sulfoxide (DMSO) (Sigma-Aldrich, Cat# D2650), RPMI 1640 (Cellgro, Cat# 10-040-CM), Fetal Bovine Serum (Sigma, Cat# F4135), Albumin From Bovine Serum (BSA) (Sigma-Aldrich, Cat#A7906), LPS (Serotype K-235, Sigma, Product Number L 2143), IFNγ (Peprotech, Cat# 300-02), Capture antibody: Human IL-23p19 ELISA (e-Bioscience, Cat. # 14-7238-85), Detection antibody: Primary Mouse Biotinylated anti-human IL-12(p40/p70) (e-Bioscience, Cat. # 13-7129-85), Secondary HRP-conjugated Streptavidin (R&D Systems, Cat#DY998), 1x PBST Washing Buffer (PBS-Tween tablet) (VWR International, Cat#80058-558), ELISA Blocking Buffer (PBS with 1% BSA), ELISA Dilution Buffer (PBS with 1% BSA), 384 Well Flat-Bottom, MaxiSorp Black Immuno Plates (Thermo Scientific, Cat# 12-565-346), 384 Well Flat-Bottom, White Tissue Culture Plates (Thermo Scientific, Cat# 12-565-343), Super Signal ELISA Pico Chemiluminescent Substrate (Thermo Scientific, Cat#37070), Cell Titer Glo reagent (Promega, Cat#G7573), Positive control, IKK2VI inhibitor (Calbiochem, Cat#401483), AquaMax 4000 plate washer (Molecular Devices), Luminometer, Wallac Victor2 1420 Multilabel Counter.
On day 1, 50K/well THP-1 cells were seeded and primed with IFNγ (50ng/mL) in 384-well plates for about 18 hours in RPMI media with 10%FBS. On day 2, the compound was serially diluted in DMSO from 5 mM in 3-fold dilutions, and then diluted 1:125 in RPMI media with 10%FBS. […] IL-23p19 protein in 70 µL/well of supernatant was measured by sandwich ELISA, and 25 µl/well Cell Titer Glo reagent was added to the remaining cells to measure compound toxicity.
Maxisorp immuno ELISA plates were pre-coated with 25 µL/well of anti-IL-23p19 capture antibody (2.5ug/mL) in PBS overnight at room temperature. […] The plates were read with a luminometer, and the chemiluminescence values were entered into Athena (Rigel) for curve fitting, EC50 calculation, and database storage. […]

SMILES: CCO[C@H]1CC[C@H](n2cc(NC(=O)c3csc(-c4cn[nH]c4)n3)c(-c3ncccn3)n2)CC1 [Compound I-1, N-(1-((1r,4r)-4-ethoxycyclohexyl)-3-(pyrimidin-2-yl)-1H-pyrazol-4-yl)-2-(1H-pyrazol-4-yl)thiazole-4-carboxamide]
- TLR4-induced IL-23 production: inhibits
